Test results as given in article PMC6330446, “An integrated characterization of contractile, electrophysiological, and structural cardiotoxicity of Sophora tonkinensis Gapnep. in human pluripotent stem cell-derived cardiomyocytes” (Stem Cell Research & Therapy, 2019).

What was measured:
hiPSC-CMs [1] = assay: Cardio-NLCS impedance and extracellular field potential (EFP) recording; format: cell-based, human; settings: for Amplitude (EFP): lowest concentration that demonstrated a significant change compare with the control group / Amplitude (IMP): lowest concentration that demonstrated a significant change compare with the control group / Base impedance: lowest concentration that demonstrated a significant change compare with the control group / Beat rate: lowest concentration that demonstrated a significant change compare with the control group / FPD: lowest concentration that demonstrated a significant change compare with the control group: 2, 10, 50 μM tested, recorded over 24 h
Method: (§1) After plating for about 3 days, CMs matured and began to beat. At this time, different compounds were added, and experiments were performed 24 h after treatment. The experiments were grouped as follows: control group (normal medium); matrine, oxymatrine, sophocarpine, and cytisine treatment (2, 10, 50 μM) groups; and aconitine treatment (1 μM) group. The doses of toxicity studies above were determined by the effective therapeutic doses reported and included or exceeded the therapeutic dose.
Cardio-NLCS (Optoprobe Science LTD, Canada) is a turn-key system for efficient impedance and extracellular field potential (EFP) measurements of cell monolayers or tissue preparations. NSP-96 dedicated for Cardio-NLCS should be coated with BD and the wells should not run dry before adding the cell suspension. After seeding, the medium was not exchanged for 12 h. Subsequently, the medium exchange was completed once a day for 2–3 days and every 2 days thereafter. Adding compounds required a complete solution exchange to allow for exact dosing. After the cells were allowed to re-equilibrate for 2–3 h, the 2× concentrated compounds were added by exchanging half of the medium per well. In this experiment, several indexes (base impedance, amplitude, beat rate, and FPD) were recorded at the start of the experiment (control), then every 5 min for 4 h after compound application and every 30 min the same as cell growth period detection, lasting a minimum of 24 h. In this way, both time and concentration-dependent effects could be monitored. Impedance and EFP data analyses were taken every 4 h after compound administrations.

GCaMP hESC-CMs = format: cell-based, human; settings: for [Ca^2+]i: lowest concentration that demonstrated a significant change compare with the control group: hESC-CMs, 2, 10, 50 μM tested
Method: The hESC-CMs in this experiment can express the GCaMP reporter gene by gene editing, and green fluorescence marker can be observed by a fluorescence microscope. The fluorescence intensity is proportional to Ca^2+ concentration. The CMs were seeded into 96-well plates at 5000/well and were administered the same as above. The fluorescence intensities of hESC-CMs were monitored using an IncuCyte™ S3 ZOOM cell imaging system (Essen BioScience, Ann Arbor, MI). Data were presented as the mean ± SEM, n ≥ 3.

hiPSC-CMs [2] = settings: hiPSC-CMs, 24 h; for Cell viability (in words): alkaloids 2, 10, 50 μM, aconitine 1 μM
Method: as §1
CMs were incubated in 10% CCK-8 (Dojindo, Kumamoto, Japan) that was diluted in normal culture medium at 37 °C until a visual color conversion occurred. The absorbance of each well was measured using a microplate reader (Spectrafluor, TECAN, Sunrise, Austria) at 450 nm. Three individual experiments were performed. All samples were operated in duplicate.
A 96-well plate was used to seed hiPSC-CMs at a concentration of 5 × 10^4 cells per well. The cultured cells were treated with different concentrations of compounds and were incubated for another 48 h. CMs were digested with trypsin, and a small amount of cell suspension was added into the same amount of trypan blue solution. Countstar Automated Cell Counter IC1000 (Elite Life Sciences, Shanghai, China) was used to count the number of total and living cells. Data were presented as the mean ± SEM, n ≥ 3.

hiPSC-CMs [3] = format: cell-based, human; settings: hiPSC-CMs; for ROS level: lowest concentration that demonstrated a significant change compare with the control group: 2, 10, 50 μM tested
Method: Cells were incubated in a maintaining medium containing 10 μM DCFH-DA (Beyotime Biotechnology, Shanghai, China) for 30 min at 37 °C in the dark. The measurement of ROS was performed with IncuCyte™ S3 ZOOM cell imaging system (Essen BioScience, Ann Arbor, MI). TissueQuest 6.0 was used for the quantitative analysis of ROS formation. Data were presented as the mean ± SEM, n ≥ 3.

hiPSC-CMs [4] = settings: hiPSC-CMs; 2, 10, 50 μM tested
Method: as §1
Cell treatment method was the same as above. After reaching the predetermined time, 120 μl of the supernatant of each well was taken for measuring LDH leakage using a commercially available kit (Beyotime Biotechnology, Shanghai, China) following the manufacturer’s instructions. Data were presented as the mean ± SEM, n ≥ 3.

hiPSC-CMs [5] = assay: SOD, GSH and MDA assay; format: cell-based, human; settings: 2, 10, 50 μM
Method: as §1
Cell treatment was the same as discussed in the “Compound treatment” section. After reaching the predetermined time, the cells were washed with 4 °C physiological saline and later were added into the lysate and appropriately pipetted. After centrifuging at 1.2 × 10^4 rpm for 5 min, the supernatant was obtained to measure the levels of SOD, GSH and MDA using a commercially available kit (Beyotime Biotechnology, Shanghai, China) following the manufacturer's instructions. Data were presented as the mean ± SEM, n ≥ 3.

[6] = at the lowest effective concentration

O=C1CCC[C@@H]2[C@H]3CCCN4CCC[C@@H](CN12)[C@@H]34 [Matrine, matrine]
Amplitude (EFP): lowest concentration that demonstrated a significant change compare with the control group (hiPSC-CMs [1]): 50 µM | Amplitude (IMP): lowest concentration that demonstrated a significant change compare with the control group (hiPSC-CMs [1]): 10 µM | Base impedance: lowest concentration that demonstrated a significant change compare with the control group (hiPSC-CMs [1]): 10 µM | Beat rate: lowest concentration that demonstrated a significant change compare with the control group (hiPSC-CMs [1]): 2 µM | FPD: lowest concentration that demonstrated a significant change compare with the control group (hiPSC-CMs [1]): 50 µM | Base impedance vs the control group (in words) (hiPSC-CMs [1]; 2, 10, 50 μM, 24 h recording): slightly lowered | Beat rate vs the control group (in words) (hiPSC-CMs [1]; 2, 10, 50 μM, 24 h recording): slightly lowered | Contractile amplitude (amplitude of IMP) vs the control group (in words) (hiPSC-CMs [1]; 2, 10, 50 μM, 24 h recording): upward trend | FPD value vs the control group (in words) (hiPSC-CMs [1]; 2, 10, 50 μM, 24 h recording): rose in the first half of matrine treatment | Potential amplitude (amplitude of EFP) vs the control group (in words) (hiPSC-CMs [1]; 2, 10, 50 μM, 24 h recording): upward trend | Amplitude (EFP): initial time of significant change compare with the control group (hiPSC-CMs [1]; [6]): 20 h | Amplitude (IMP): initial time of significant change compare with the control group (hiPSC-CMs [1]; [6]): 4 h | Base impedance: initial time of significant change compare with the control group (hiPSC-CMs [1]; [6]): 16 h | Beat rate in comparison with the low-dose group (in words) (hiPSC-CMs [1]; higher concentrations 10, 50 μM): an increase in beat rate can be detected | Beat rate (in words) (hiPSC-CMs [1]; low, therapeutically relevant concentration 2 μM): a decrease in the beat rate can be detected | Fluorescence intensity of calcium, [Ca^2+]i (in words) (GCaMP hESC-CMs; GCaMP hESC-CMs, high dose of alkaloids (50 μM), aconitine 1 μM): increased significantly | [Ca^2+]i: lowest concentration that demonstrated a significant change compare with the control group (GCaMP hESC-CMs): 50 µM | Cell viability (in words) (hiPSC-CMs [2]): decreased dose-dependently | ROS level: lowest concentration that demonstrated a significant change compare with the control group (hiPSC-CMs [3]): 50 µM | ROS fluorescence / ROS production (in words) (hiPSC-CMs [3]; high dose of alkaloids (50 μM), aconitine 1 μM): induced ROS production in excess | LDH leakage: lowest concentration that demonstrated a significant change compare with the control group (hiPSC-CMs [4]): 2 µM | GSH activity (in words) (hiPSC-CMs [5]): sharply lowered | MDA level (in words) (hiPSC-CMs [5]): rose | SOD activity (in words) (hiPSC-CMs [5]): sharply lowered

O=C1C=CC[C@@H]2[C@H]3CCCN4CCC[C@@H](CN12)[C@@H]34 [Sophocarpine, sophocarpine]
FPD after high-dose administration (in words) (hiPSC-CMs [1]; 50 μM): immediately increased in a jump | Amplitude (EFP): lowest concentration that demonstrated a significant change compare with the control group (hiPSC-CMs [1]): 50 µM | Amplitude (IMP): lowest concentration that demonstrated a significant change compare with the control group (hiPSC-CMs [1]): 50 µM | Base impedance: lowest concentration that demonstrated a significant change compare with the control group (hiPSC-CMs [1]): 50 µM | Beat rate: lowest concentration that demonstrated a significant change compare with the control group (hiPSC-CMs [1]): 50 µM | FPD: lowest concentration that demonstrated a significant change compare with the control group (hiPSC-CMs [1]): 50 µM | Base impedance vs the control group (in words) (hiPSC-CMs [1]; 2, 10, 50 μM, 24 h recording): no change | Contractile amplitude (amplitude of IMP) vs the control group (in words) (hiPSC-CMs [1]; 2, 10, 50 μM, 24 h recording): upward dose-dependent trend | FPD value vs the control group (in words) (hiPSC-CMs [1]; 2, 10, 50 μM, 24 h recording): large differences in the first 12 h and remained stable after 15 h of treatment | Potential amplitude (amplitude of EFP) vs the control group (in words) (hiPSC-CMs [1]; 2, 10, 50 μM, 24 h recording): no change | Amplitude (EFP): initial time of significant change compare with the control group (hiPSC-CMs [1]; [6]): 16 h | Base impedance: initial time of significant change compare with the control group (hiPSC-CMs [1]; [6]): 8 h | Beat rate: initial time of significant change compare with the control group (hiPSC-CMs [1]; [6]): 4 h | FPD: period of time of significant change compare with the control group (hiPSC-CMs [1]; [6]): 0 to 12 h | [Ca^2+]i: lowest concentration that demonstrated a significant change compare with the control group (GCaMP hESC-CMs): 50 µM | Cell viability: lowest concentration that demonstrated a significant change compare with the control group (hiPSC-CMs [2]; 2, 10, 50 μM tested): 10 µM | Cell viability (in words) (hiPSC-CMs [2]): decreased dose-dependently | ROS level: lowest concentration that demonstrated a significant change compare with the control group (hiPSC-CMs [3]): 10 µM | LDH leakage: lowest concentration that demonstrated a significant change compare with the control group (hiPSC-CMs [4]): 2 µM | GSH activity (in words) (hiPSC-CMs [5]): sharply lowered | MDA level (in words) (hiPSC-CMs [5]): rose | SOD activity (in words) (hiPSC-CMs [5]): sharply lowered
